#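 In this assay, cells in 96-well plates receive the compound at five concentrations for 48 hours. Endpoints are linearly interpolated between the surrounding concentrations. TGI marks complete inhibition of growth.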
# What was measured:
# Test in all cases: inhibition of tumour cell growth, NCI panel, 48 h
# A549 NSCLC = test system: A549 NSCLC
# ACHN renal = test system: ACHN renal
# CCRF-CEM leukemia = test system: CCRF-CEM leukemia
# COLO 205 colon = test system: COLO 205 colon
# DLD-1 colon = test system: DLD-1 colon
# DMS 114 small cell lung = test system: DMS 114 small cell lung
# DMS 273 small cell lung = test system: DMS 273 small cell lung
# EKVX NSCLC = test system: EKVX NSCLC
# HCC-2998 colon = test system: HCC-2998 colon
# HCT-116 colon = test system: HCT-116 colon
# HCT-15 colon = test system: HCT-15 colon
# HL-60(TB) leukemia = test system: HL-60(TB) leukemia
# HOP-62 NSCLC = test system: HOP-62 NSCLC
# HT29 colon = test system: HT29 colon
# IGROV1 ovarian = test system: IGROV1 ovarian
# K-562 leukemia = test system: K-562 leukemia
# KM12 colon = test system: KM12 colon
# KM20L2 colon = test system: KM20L2 colon
# LOX IMVI melanoma = test system: LOX IMVI melanoma
# LXFL 529 NSCLC = test system: LXFL 529 NSCLC
# M14 melanoma = test system: M14 melanoma
# M19-MEL melanoma = test system: M19-MEL melanoma
# MOLT-4 leukemia = test system: MOLT-4 leukemia
# NCI-H226 lung = test system: NCI-H226 lung
# NCI-H23 lung = test system: NCI-H23 lung
# NCI-H460 lung = test system: NCI-H460 lung
# OVCAR-3 ovarian = test system: OVCAR-3 ovarian
# OVCAR-4 ovarian = test system: OVCAR-4 ovarian
# OVCAR-5 ovarian = test system: OVCAR-5 ovarian
# OVCAR-8 ovarian = test system: OVCAR-8 ovarian
# RPMI-8226 leukemia = test system: RPMI-8226 leukemia
# RXF 393 renal = test system: RXF 393 renal
# SF-268 CNS = test system: SF-268 CNS
# SF-295 CNS = test system: SF-295 CNS
# SF-539 CNS = test system: SF-539 CNS
# SK-MEL-28 melanoma = test system: SK-MEL-28 melanoma
# SK-MEL-5 melanoma = test system: SK-MEL-5 melanoma
# SK-OV-3 ovarian = test system: SK-OV-3 ovarian
# SN12C renal = test system: SN12C renal
# SNB-19 CNS = test system: SNB-19 CNS
# SNB-75 CNS = test system: SNB-75 CNS
# SNB-78 CNS = test system: SNB-78 CNS
# SR leukemia = test system: SR leukemia
# SW-620 colon = test system: SW-620 colon
# TK-10 renal = test system: TK-10 renal
# U251 CNS = test system: U251 CNS
# UACC-257 melanoma = test system: UACC-257 melanoma
# UACC-62 melanoma = test system: UACC-62 melanoma
# UO-31 renal = test system: UO-31 renal
# XF 498 CNS = test system: XF 498 CNS
# 786-0 renal = test system: 786-0 renal
# A498 renal = test system: A498 renal
# HOP-18 NSCLC = test system: HOP-18 NSCLC
# HOP-92 NSCLC = test system: HOP-92 NSCLC
# MALME-3M melanoma = test system: MALME-3M melanoma
# NCI-H522 lung = test system: NCI-H522 lung
# SK-MEL-2 melanoma = test system: SK-MEL-2 melanoma
# CAKI-1 renal = test system: CAKI-1 renal
compound,measurement,setting,value
CC1(C)OC2C(CO)OC(/N=C(\NC#N)Oc3ccccc3)C2O1 (stereo not given),TGI,A549 NSCLC,> 100 µM
same,TGI,ACHN renal,> 100 µM
same,TGI,CCRF-CEM leukemia,> 100 µM
same,TGI,COLO 205 colon,> 100 µM
same,TGI,DLD-1 colon,> 100 µM
same,TGI,DMS 114 small cell lung,> 100 µM
same,TGI,DMS 273 small cell lung,> 100 µM
same,TGI,EKVX NSCLC,> 100 µM
same,TGI,HCC-2998 colon,> 100 µM
same,TGI,HCT-116 colon,> 100 µM
same,TGI,HCT-15 colon,> 100 µM
same,TGI,HL-60(TB) leukemia,> 100 µM
same,TGI,HOP-62 NSCLC,> 100 µM
same,TGI,HT29 colon,> 100 µM
same,TGI,IGROV1 ovarian,> 100 µM
same,TGI,K-562 leukemia,> 100 µM
same,TGI,KM12 colon,> 100 µM
same,TGI,KM20L2 colon,> 100 µM
same,TGI,LOX IMVI melanoma,> 100 µM
same,TGI,LXFL 529 NSCLC,> 100 µM
same,TGI,M14 melanoma,> 100 µM
same,TGI,M19-MEL melanoma,> 100 µM
same,TGI,MOLT-4 leukemia,> 100 µM
same,TGI,NCI-H226 lung,> 100 µM
same,TGI,NCI-H23 lung,> 100 µM
same,TGI,NCI-H460 lung,> 100 µM
same,TGI,OVCAR-3 ovarian,> 100 µM
same,TGI,OVCAR-4 ovarian,> 100 µM
same,TGI,OVCAR-5 ovarian,> 100 µM
same,TGI,OVCAR-8 ovarian,> 100 µM
same,TGI,RPMI-8226 leukemia,> 100 µM
same,TGI,RXF 393 renal,> 100 µM
same,TGI,SF-268 CNS,> 100 µM
same,TGI,SF-295 CNS,> 100 µM
same,TGI,SF-539 CNS,> 100 µM
same,TGI,SK-MEL-28 melanoma,> 100 µM
same,TGI,SK-MEL-5 melanoma,> 100 µM
same,TGI,SK-OV-3 ovarian,> 100 µM
same,TGI,SN12C renal,> 100 µM
same,TGI,SNB-19 CNS,> 100 µM
same,TGI,SNB-75 CNS,> 100 µM
same,TGI,SNB-78 CNS,> 100 µM
same,TGI,SR leukemia,> 100 µM
same,TGI,SW-620 colon,> 100 µM
same,TGI,TK-10 renal,> 100 µM
same,TGI,U251 CNS,> 100 µM
same,TGI,UACC-257 melanoma,> 100 µM
same,TGI,UACC-62 melanoma,> 100 µM
same,TGI,UO-31 renal,> 100 µM
same,TGI,XF 498 CNS,> 100 µM
N#CC1(Cc2ccccc2Cl)c2ccccc2C=CN1C(=O)c1ccccc1 (stereo not given),TGI,786-0 renal,> 100 µM
same,TGI,A498 renal,> 100 µM
same,TGI,A549 NSCLC,> 100 µM
same,TGI,ACHN renal,> 100 µM
same,TGI,CCRF-CEM leukemia,> 100 µM
same,TGI,COLO 205 colon,> 100 µM
same,TGI,DMS 114 small cell lung,> 100 µM
same,TGI,DMS 273 small cell lung,> 100 µM
same,TGI,EKVX NSCLC,> 100 µM
same,TGI,HCC-2998 colon,> 100 µM
same,TGI,HCT-116 colon,> 100 µM
same,TGI,HCT-15 colon,> 100 µM
same,TGI,HL-60(TB) leukemia,> 100 µM
same,TGI,HOP-18 NSCLC,> 100 µM
same,TGI,HOP-62 NSCLC,> 100 µM
same,TGI,HOP-92 NSCLC,> 100 µM
same,TGI,HT29 colon,> 100 µM
same,TGI,IGROV1 ovarian,> 100 µM
same,TGI,K-562 leukemia,> 100 µM
same,TGI,KM12 colon,> 100 µM
same,TGI,KM20L2 colon,> 100 µM
same,TGI,LOX IMVI melanoma,> 100 µM
same,TGI,LXFL 529 NSCLC,> 100 µM
same,TGI,M14 melanoma,> 100 µM
same,TGI,M19-MEL melanoma,> 100 µM
same,TGI,MALME-3M melanoma,> 100 µM
same,TGI,MOLT-4 leukemia,> 100 µM
same,TGI,NCI-H226 lung,> 100 µM
same,TGI,NCI-H23 lung,> 100 µM
same,TGI,NCI-H522 lung,> 100 µM
same,TGI,OVCAR-3 ovarian,> 100 µM
same,TGI,OVCAR-5 ovarian,> 100 µM
same,TGI,OVCAR-8 ovarian,> 100 µM
same,TGI,RPMI-8226 leukemia,> 100 µM
same,TGI,RXF 393 renal,> 100 µM
same,TGI,SF-268 CNS,> 100 µM
same,TGI,SF-295 CNS,> 100 µM
same,TGI,SF-539 CNS,> 100 µM
same,TGI,SK-MEL-2 melanoma,> 100 µM
same,TGI,SK-MEL-28 melanoma,> 100 µM
same,TGI,SK-MEL-5 melanoma,> 100 µM
same,TGI,SK-OV-3 ovarian,> 100 µM
same,TGI,SN12C renal,> 100 µM
same,TGI,SNB-19 CNS,> 100 µM
same,TGI,SNB-75 CNS,> 100 µM
same,TGI,SNB-78 CNS,> 100 µM
same,TGI,SR leukemia,> 100 µM
same,TGI,SW-620 colon,> 100 µM
same,TGI,TK-10 renal,> 100 µM
same,TGI,U251 CNS,> 100 µM
same,TGI,UACC-257 melanoma,> 100 µM
same,TGI,UACC-62 melanoma,> 100 µM
same,TGI,UO-31 renal,> 100 µM
same,TGI,XF 498 CNS,> 100 µM
COc1ccc(/C=N\N2C(=O)Cc3ccccc32)cc1,TGI,786-0 renal,> 100 µM
same,TGI,A498 renal,> 100 µM
same,TGI,A549 NSCLC,> 100 µM
same,TGI,ACHN renal,> 100 µM
same,TGI,CAKI-1 renal,> 100 µM
same,TGI,CCRF-CEM leukemia,> 100 µM
same,TGI,COLO 205 colon,> 100 µM
same,TGI,DLD-1 colon,> 100 µM
same,TGI,DMS 273 small cell lung,> 100 µM
same,TGI,EKVX NSCLC,> 100 µM
same,TGI,HCC-2998 colon,> 100 µM
same,TGI,HCT-116 colon,> 100 µM
same,TGI,HCT-15 colon,> 100 µM
same,TGI,HL-60(TB) leukemia,> 100 µM
same,TGI,HOP-18 NSCLC,> 100 µM
same,TGI,HOP-62 NSCLC,> 100 µM
same,TGI,HOP-92 NSCLC,85.5 µM
same,TGI,HT29 colon,> 100 µM
same,TGI,IGROV1 ovarian,> 100 µM
same,TGI,K-562 leukemia,> 100 µM
same,TGI,KM12 colon,> 100 µM
same,TGI,KM20L2 colon,> 100 µM
same,TGI,LOX IMVI melanoma,> 100 µM
same,TGI,M14 melanoma,> 100 µM
same,TGI,M19-MEL melanoma,> 100 µM
same,TGI,MALME-3M melanoma,> 100 µM
same,TGI,MOLT-4 leukemia,> 100 µM
same,TGI,NCI-H226 lung,> 100 µM
same,TGI,NCI-H23 lung,> 100 µM
same,TGI,NCI-H460 lung,> 100 µM
same,TGI,OVCAR-3 ovarian,> 100 µM
same,TGI,OVCAR-4 ovarian,> 100 µM
same,TGI,OVCAR-5 ovarian,> 100 µM
same,TGI,OVCAR-8 ovarian,> 100 µM
same,TGI,RPMI-8226 leukemia,> 100 µM
same,TGI,SF-268 CNS,> 100 µM
same,TGI,SF-295 CNS,> 100 µM
same,TGI,SF-539 CNS,> 100 µM
same,TGI,SK-MEL-2 melanoma,> 100 µM
same,TGI,SK-MEL-28 melanoma,> 100 µM
same,TGI,SK-MEL-5 melanoma,> 100 µM
same,TGI,SK-OV-3 ovarian,> 100 µM
same,TGI,SNB-19 CNS,> 100 µM
same,TGI,SNB-75 CNS,62 µM
same,TGI,SNB-78 CNS,> 100 µM
same,TGI,SW-620 colon,> 100 µM
same,TGI,TK-10 renal,> 100 µM
same,TGI,U251 CNS,> 100 µM
same,TGI,UACC-257 melanoma,> 100 µM
same,TGI,UACC-62 melanoma,> 100 µM
same,TGI,UO-31 renal,> 100 µM
same,TGI,XF 498 CNS,83.9 µM
CC(C)CCC[C@@H](C)C1CCC2[C@@H]3CC=C4C[C@@H](OC(=O)CCC(=O)NCC[N+](C)(C)CCCS(=O)(=O)[O-])CC[C@]4(C)C3CC[C@@]21C (stereo not given in full),TGI,786-0 renal,67.9 µM
same,TGI,A549 NSCLC,37.8 µM
same,TGI,ACHN renal,53.9 µM
same,TGI,CAKI-1 renal,> 100 µM
same,TGI,CCRF-CEM leukemia,42.6 µM
same,TGI,COLO 205 colon,40.3 µM
same,TGI,DLD-1 colon,44.9 µM
same,TGI,DMS 114 small cell lung,36.1 µM
same,TGI,DMS 273 small cell lung,28.5 µM
same,TGI,EKVX NSCLC,79.5 µM
same,TGI,HCC-2998 colon,37.5 µM
same,TGI,HCT-116 colon,63.1 µM
same,TGI,HCT-15 colon,29.5 µM
same,TGI,HL-60(TB) leukemia,36.6 µM
same,TGI,HOP-18 NSCLC,97.2 µM
same,TGI,HOP-62 NSCLC,33.9 µM
same,TGI,HT29 colon,80.3 µM
same,TGI,K-562 leukemia,37.6 µM
same,TGI,KM12 colon,37.9 µM
same,TGI,KM20L2 colon,> 100 µM
same,TGI,LOX IMVI melanoma,33.1 µM
same,TGI,LXFL 529 NSCLC,71.6 µM
same,TGI,M14 melanoma,36 µM
same,TGI,M19-MEL melanoma,33.4 µM
same,TGI,MALME-3M melanoma,43.7 µM
same,TGI,MOLT-4 leukemia,39.7 µM
same,TGI,NCI-H226 lung,50.5 µM
same,TGI,NCI-H460 lung,30.9 µM
same,TGI,NCI-H522 lung,73 µM
same,TGI,OVCAR-3 ovarian,34.5 µM
same,TGI,OVCAR-4 ovarian,34.5 µM
same,TGI,OVCAR-8 ovarian,35 µM
same,TGI,RPMI-8226 leukemia,45.9 µM
same,TGI,RXF 393 renal,24.2 µM
same,TGI,SF-268 CNS,39.7 µM
same,TGI,SF-295 CNS,31.6 µM
same,TGI,SF-539 CNS,31.4 µM
same,TGI,SK-MEL-2 melanoma,34.9 µM
same,TGI,SK-MEL-28 melanoma,32.9 µM
same,TGI,SK-OV-3 ovarian,> 100 µM
same,TGI,SN12C renal,38.2 µM
same,TGI,SNB-19 CNS,44.7 µM
same,TGI,SNB-75 CNS,44.9 µM
same,TGI,SNB-78 CNS,70.1 µM
same,TGI,SW-620 colon,33.8 µM
same,TGI,U251 CNS,33.9 µM
same,TGI,UACC-257 melanoma,48.8 µM
same,TGI,UACC-62 melanoma,50.3 µM
same,TGI,UO-31 renal,> 100 µM
